Experimental data: US12171729B2, “Formulations of terameprocol and temozolomide and their use in stimulation of humoral immunity in tumors” (The Johns Hopkins University, priority 2019, dated 2024)

What was measured:
LN229 tumors [1] = assay: Immune cells infiltration in LN229 tumors from xenograft mice; format: in vivo, mouse
LN229 tumors [2] = assay: Metabolite analysis (Metabolon) of LN229 tumor samples; format: in vivo, mouse; details: EM+M4N+TMZ1/2 versus EM+TMZ1/2 schedule
[3] = system: LN229 tumor xenograft mice; assay: Cytokine profiles in serum of treated LN229 xenograft nude mice; format: in vivo, mouse; details: sera from LN229 tumor xenograft mice
[4] = daily (1 mg/day) IV injection, nude mice carrying human tumor xenografts; cited from earlier work
[5] = oral administration, short-term and long-term feeding; cited from earlier work
Kras G12D mice = details: mouse, in vivo, po
Text: FIG. 13 depicts MRI of lung tumors in mice. The axial images were taken by 9.4 T MRI; RARE T2-weighted; slice thickness=1 mm; total slice number=24. The scan started from neck to bottom of ribs. The tumor size ≥1 mm is detectable by this scan. H, heart; S, spine; Arrow: lung tumor;
In the present Kras-driven lung cancer model, since mice carry homozygous mutant Kras are embryonic lethal, all Kras mice bred are heterozygous Kras^+/G12D that one genetic engineering allele can synthesize the Kras G12D protein by “hit-and-run” recombination and cause cancers spontaneously (FIG. 11A). According to previous reports and experience, lung lesions could be found in mice as young as one-week old. In this group of mice, 100% of the mice will develop lung cancer between 15 to 40 weeks of age (FIG. 11B), and about 30% may also develop thymic lymphoma and papilloma (Nature; 410:6832; 1111-6, 2001). […]
In this study, 10-week old, female, Kras G12D mice were chosen; which lung cancer had not been well developed in at this age. […] After consecutive treatments for 120 days, treatment for mice that reached 28 weeks old was stopped in both groups and the mice were monitored and weighed continuously. […]

malignant gliomas = details: cited from earlier work

Structure (SMILES)	tumor infiltrating immune cells in the tumor microenvironment (LN229 tumors [1])	effect on metabolic pathways of the tumor (LN229 tumors [2])	level of IL-21 in sera (in words) [3]	M4N levels accumulated in blood and tumors [4]	M4N concentration in mouse organs [5]	weight loss during treatment (Kras G12D mice)	survival rate at 2 years (malignant gliomas; radiotherapy and chemotherapy, radiotherapy alone 10.4%)	dose-limiting toxicity (malignant gliomas; systemic exposure, specifically thrombocytopenia and neutropenia)
COc1ccc(C[C@@H](C)[C@@H](C)Cc2ccc(OC)c(OC)c2)cc1OC [M4N, Tetra-O-methyl nordihydroguaiaretic acid]	Tumor infiltrating macrophages and B cells	suppressed most of the metabolic pathways	significantly increased	above 1 mM	≤ 906 μg/g of tissue	no significant weight loss		
Cn1nnc2c(C(N)=O)ncn2c1=O [TMZ, 3,4-dihydro-3-methyl-4-oxoimidazo[5,1-d]-1,2,3,5-tetrazine-8-carboxamide]							26.5%	hematological toxicity
